Converted amounts (≈) assume the structure as drawn. “And” between values parts separate entries of the source, which are not always exact repeats. Equal entries are not always repeated.
Assays:
[1] = Lipophilicity determination by HPLC (capacity factor k, distribution coefficients DpH); format: physicochemical; details: for log k: MeOH 72 % / H2O 28 %, C18; for log D6.5: MeOH 72 % / acetate-buffered saline pH 6.5 28 %; for log D7.4: MeOH 72 % / acetate-buffered saline pH 7.4 28 %
Description: An HPLC system Agilent 1200 equipped with a DAD detector (Agilent, Santa Clara, CA, USA) was used. A chromatographic column Symmetry® C18 5 μm, 4.6×250 mm, part No. WAT054275 (Waters Corp., Milford, MA, USA) was used. The HPLC separation process was monitored and evaluated with EZChrom Elite software ver. 3.3.2 [53] (Agilent). Isocratic elution by a mixture of MeOH p.a. (72 %) and H2O-HPLC Mili-Q grade (28 %) as a mobile phase was used for the determination of capacity factor k. Isocratic elution by a mixture of MeOH p.a. (72 %) and acetate-buffered saline (pH 7.4 and pH 6.5) (28 %) as a mobile phase was used for the determination of distribution coefficients expressed as D7.4 and D6.5. The total flow of the column was 1.0 mL/min, the injection volume was 20 μL, the column temperature was 40 °C, and the sample temperature was 10 °C. The detection wavelength of 210 nm was chosen. A KI methanolic solution was used for the determination of the dead times (tD). Retention times (tR) were measured in minutes. The capacity factors k were calculated according to the formula k = (tR−tD)/tD, where tR is the retention time of the solute, and tD is the dead time obtained using an unretained analyte. The distribution coefficients DpH were calculated according to the formula DpH = (tR−tD)/tD. Each experiment was repeated three times.

S. aureus ATCC 29213 [2] = assay: Antistaphylococcal screening, microtitration broth MIC; format: cell-based, Staphylococcus aureus; details: for MIC: Staphylococcus aureus, ATCC29213, S. aureus ATCC 29213, 24 h, 37 °C; for Antistaphylococcal activity in words: susceptible strain and resistant isolates
Method: (§1) In vitro antistaphylococcal activity of the synthesized compounds was evaluated against three clinical isolates of methicillin-resistant S. aureus: clinical isolate of animal origin, MRSA 63718 (Department of Infectious Diseases and Microbiology, Faculty of Veterinary Medicine, University of Veterinary Sciences Brno, Czech Republic), carrying the mecA gene; and MRSA SA 630 and MRSA SA 3202 [54] (National Institute of Public Health, Prague, Czech Republic), both of human origin. […] All isolates were tested for the presence of the mecA gene encoding methicillin resistance. […] Vancomycin-susceptible methicillin-susceptible S. aureus (VS-MSSA) ATCC 29213, obtained from the American Type Culture Collection, was used as the reference and quality control strain. The minimum inhibitory concentrations (MICs) were evaluated by the microtitration broth method according to the CLSI [58, 59] with some modifications. The compounds were dissolved in DMSO (Sigma, St. Louis, MO, USA) to get a concentration […] and diluted in a microtitration plate in a medium Cation Adjusted Mueller-Hinton (CaMH, Oxoid, Basingstoke, UK) to reach the final concentration of 256-0.0625 μg/mL. The plate was inoculated by the tested microorganisms. The final concentration of bacterial cells was 10^5 for bacteria. […] A drug-free control and a sterility control were included. The plates were incubated for 24 h at 37 °C. […] The experiments were repeated three times.

MRSA 63718 = assay: as above; format: cell-based, methicillin-resistant S. aureus; details: Staphylococcus aureus; MRSA 63718, 24 h, 37 °C
Method: as §1

MRSA SA 3202 = assay: as above; format: cell-based, methicillin-resistant S. aureus; details: Staphylococcus aureus; MRSA SA 3202, 24 h, 37 °C
Method: as §1

MRSA SA 630 = assay: as above; format: cell-based, methicillin-resistant S. aureus; details: Staphylococcus aureus; MRSA SA 630, 24 h, 37 °C
Method: as §1

[3] = tested on: Human monocytic leukemia THP-1 cells; set-up: method as in PMID 24075143; details: tested up to 20 μM, ref [29], read-out: LC50 THP-1; cited from earlier work
S. aureus ATCC 29213 [4] = assay: MTT assay (bacterial viability / respiratory activity); format: cell-based, Staphylococcus aureus; details: S. aureus ATCC 29213, MTT; for S. aureus viability inhibition: at the lowest multiple of MIC with at least 70 % inhibition
Method: Compounds were prepared as previously stated and diluted in CaMH broth for S. aureus to achieve the desired final concentrations. S. aureus bacterial suspension in sterile distilled water at 0.5 McFarland was diluted 1:3. Inocula were added to each well by multi-inoculator. Diluted […] in broth free from inhibiting compounds were used as the growth control. All compounds were prepared in duplicate. Plates were incubated at 37 °C for 24 h for S. aureus. After the incubation period, 10 % well volume of MTT (3-(4,5-dimethylthiazol-2-yl)-2,5-diphenyltetrazolium bromide) reagent (Sigma) was mixed into each well and incubated at 37 °C for 1 h for S. aureus. Then 100 μL of 17 % sodium dodecyl sulphate in 40 % dimethylformamide was added to each well. The plates were read at 570 nm. The absorbance readings from the cells grown in the presence of the tested compounds were compared with uninhibited cell growth to determine the relative percent inhibition. The percent inhibition was determined through the MTT assay. The percent viability is calculated through the comparison of a measured value and that of the uninhibited control: Viability = (OD570E/OD570P)×100, where OD570E is the reading from the compound-exposed cells, while OD570P is the reading from the uninhibited cells (positive control). Cytotoxic potential is determined by a percent viability of <70 % [60, 61].
The MTT assay can be used to assess cell growth by measuring respiration.

in vitro = assay: in vitro
Method: Cytotoxicity of the compounds was determined using an LDH assay kit (Roche, Mannheim, Germany) as described previously. Human monocytic leukemia THP-1 cells (European Collection of Cell Cultures, Salisbury, UK) were exposed for 24 h at 37 °C to various compound concentrations ranging from 0.37 to 30 μM in RPMI 1640 medium. For LDH assays, cells were seeded into 96-well plates (5×10^4 cells/well in 100 μL of culture medium) in triplicate in serum-free RPMI 1640 medium and measurements were taken 24 h after the treatment with the compounds. The maximum concentration of DMSO (Sigma) in the assays never exceeded 0.1 %. […] The median lethal dose values, LC50, were deduced through the production of a dose-response curve. All data from three independent experiments were evaluated using GraphPad Prism 5.00 software.

| SMILES | log k [1] | log D6.5 [1] | log D7.4 [1] | MIC (S. aureus ATCC 29213 [2]) [µM] | MIC (MRSA 63718) [µM] | MIC (MRSA SA 3202) [µM] | MIC (MRSA SA 630) [µM] | CC50 [3] [µM] | Concentration: lowest multiple of MIC with at least 70 % inhibition of viability (S. aureus ATCC 29213 [4]) [× MIC] | S. aureus viability inhibition (S. aureus ATCC 29213 [4]) | CC50 at 24 h (in vitro) [µM] | Antistaphylococcal activity in words (S. aureus ATCC 29213 [2]) |
| --- | --- | --- | --- | --- | --- | --- | --- | --- | --- | --- | --- | --- |
| O=C(Nc1ccc(Cl)cc1Cl)c1ccc2ccccc2c1O [Compound 6] | 0.7387 | 0.5168 | 0.4680 | 770 (≈ 256 µg/mL) | 770 (≈ 256 µg/mL) | 770 (≈ 256 µg/mL) | 770 (≈ 256 µg/mL) |  |  |  |  |  |
| O=C(Nc1cccc(Cl)c1Cl)c1ccc2ccccc2c1O [Compound 5] | 0.6838 | 0.4371 | 0.3870 | 770 (≈ 256 µg/mL) | 770 (≈ 256 µg/mL) | 770 (≈ 256 µg/mL) | 770 (≈ 256 µg/mL) |  |  |  |  |  |
| O=C(Nc1cc(Cl)c(Cl)c(Cl)c1)c1ccc2ccccc2c1O [Compound 13, N-(3,4,5-trichlorophenyl)-1-hydroxynaphthalene-2--carboxamide] | 1.2387 | 1.0960 | 1.0561 | 698 (≈ 256 µg/mL) | 698 (≈ 256 µg/mL) | 698 (≈ 256 µg/mL) | 698 (≈ 256 µg/mL) |  |  |  |  |  |
| O=C(Nc1ccccc1)c1ccc2ccccc2c1O [Compound 1] | 0.6084 | 0.5139 | 0.5487 | > 972 | > 972 | 121 (≈ 31.9 µg/mL) | 243 (≈ 64 µg/mL) | > 20 |  |  |  |  |
| O=C(Nc1cc(Cl)c(Cl)cc1Cl)c1ccc2ccccc2c1O [Compound 11] | 0.6894 | 0.5314 | 0.4864 | 698 (≈ 256 µg/mL) | 698 (≈ 256 µg/mL) | 698 (≈ 256 µg/mL) | 698 (≈ 256 µg/mL) |  |  |  |  |  |
| O=C(Nc1c(Cl)cc(Cl)cc1Cl)c1ccc2ccccc2c1O [Compound 12] | 0.8398 | 0.7254 | 0.6825 | 698 (≈ 256 µg/mL) | 698 (≈ 256 µg/mL) | 698 (≈ 256 µg/mL) | 698 (≈ 256 µg/mL) |  |  |  |  |  |
| CC1(C)S[C@@H]2[C@H](NC(=O)[C@H](N)c3ccccc3)C(=O)N2[C@H]1C(=O)O [APC, ampicillin, reference compound] |  |  |  | 5.72 (≈ 2 µg/mL) | 45.8 (≈ 16 µg/mL) | 45.8 (≈ 16 µg/mL) | 45.8 (≈ 16 µg/mL) |  | 8 | 90.0% | 0.8 ± 0.1 |  |
| O=C(Nc1ccc(Cl)cc1)c1ccc2ccccc2c1O [Compound 4] | 0.8880 | 0.7640 | 0.7501 | > 859 | > 859 | 107 (≈ 31.9 µg/mL) | 429 (≈ 128 µg/mL) | > 20 |  |  |  |  |
| O=C(Nc1c(Cl)cccc1Cl)c1ccc2ccccc2c1O [Compound 8, N-(2,6-dichlorophenyl)-1-hydroxynaphthalene-2-carboxamide] | 0.5729 | 0.4516 | 0.4594 | 48.2 (≈ 16 µg/mL) | 48.2 (≈ 16 µg/mL) | 48.2 (≈ 16 µg/mL) | 48.2 (≈ 16 µg/mL) |  |  |  | > 30 | Partial activity |
| O=C(Nc1cc(Cl)cc(Cl)c1)c1ccc2ccccc2c1O [Compound 10, N-(3,5-dichlorophenyl)-1-hydroxynaphthalene-2-carboxamide] | 0.9704 | 0.9531 | 0.9306 | 0.37 (≈ 0.123 µg/mL) | 0.37 (≈ 0.123 µg/mL) | 0.37 (≈ 0.123 µg/mL) | 0.37 (≈ 0.123 µg/mL) |  | 16 | 96% and 96.5% | > 30 | significant antistaphylococcal activity |
| O=C(Nc1ccccc1Cl)c1ccc2ccccc2c1O [Compound 2] | 0.6900 | 0.5828 | 0.5836 | > 859 | > 859 | > 859 | > 859 |  |  |  |  |  |
| O=C(Nc1ccc(Cl)c(Cl)c1)c1ccc2ccccc2c1O [Compound 9] | 0.9304 | 0.9048 | 0.8909 | 770 (≈ 256 µg/mL) | 770 (≈ 256 µg/mL) | 385 (≈ 128 µg/mL) | 96.3 (≈ 32 µg/mL) |  |  |  |  |  |
| O=C(Nc1cc(Cl)ccc1Cl)c1ccc2ccccc2c1O [Compound 7] | 0.6717 | 0.3949 | 0.3938 | 770 (≈ 256 µg/mL) | 770 (≈ 256 µg/mL) | 770 (≈ 256 µg/mL) | 770 (≈ 256 µg/mL) |  |  |  |  |  |
| CC[C@@]1(O)C(=O)OCc2c1cc1n(c2=O)Cc2cc3ccccc3nc2-1 [CMP, camptothecin, reference compound] |  |  |  |  |  |  |  |  |  |  | 0.16 ± 0.07 |  |

Source: paper PMC12043106, “Insight into antistaphylococcal effect of chlorinated 1-hydroxynaphthalene-2-carboxanilides” (ADMET & DMPK, 2025)
